According to ChEMBL document CHEMBL1201862, “PubChem BioAssay data set” (2004):
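48-hour exposure; five concentrations; linearly interpolated endpoints. The concentration for 50% growth inhibition is given as GI50.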 Activity calls are given as the source filed them. No stated cut-off is given here; in the data, active = GI50 up to about 1.1 µM and inactive = higher.

Legend:
Assay in all cases: NCI anticancer screen, dose series, 48 h
786-0 = test system: 786-0
EKVX = test system: EKVX
HOP-62 = test system: HOP-62
LOX IMVI = test system: LOX IMVI
M14 = test system: M14
MOLT-4 = test system: MOLT-4
Malme-3M = test system: Malme-3M
OVCAR-3 = test system: OVCAR-3
OVCAR-5 = test system: OVCAR-5
OVCAR-8 = test system: OVCAR-8
SK-MEL-28 = test system: SK-MEL-28
SK-MEL-5 = test system: SK-MEL-5
SN12C = test system: SN12C
SNB-75 = test system: SNB-75
SW-620 = test system: SW-620
UACC-257 = test system: UACC-257
A498 = test system: A498

Measured: GI50

O=C1c2ccccc2CC1C1(O)C(=O)Nc2c(Cl)cc(Cl)cc21 (stereo not given)
inactive: 786-0 > 100 µM | EKVX 67 µM | HOP-62 99.5 µM | LOX IMVI 61.8 µM | M14 > 100 µM | MOLT-4 30.5 µM | Malme-3M 79.6 µM | OVCAR-3 53.5 µM | OVCAR-5 > 100 µM | OVCAR-8 39.4 µM | SK-MEL-28 > 100 µM | SK-MEL-5 27.9 µM | SN12C > 100 µM | SNB-75 61.9 µM | SW-620 35.2 µM | UACC-257 27 µM

COC(=O)C12CC(c3ccccc31)C1C(=O)OC(=O)C12 (stereo not given)
inactive: 786-0 > 100 µM | EKVX > 100 µM | HOP-62 > 100 µM | LOX IMVI > 100 µM | M14 > 100 µM | MOLT-4 > 100 µM | Malme-3M > 100 µM | OVCAR-3 > 100 µM | OVCAR-5 > 100 µM | OVCAR-8 > 100 µM | SK-MEL-28 > 100 µM | SK-MEL-5 > 100 µM | SN12C > 100 µM | SNB-75 17.5 µM | SW-620 > 100 µM | UACC-257 > 100 µM

Cc1nc(Nc2ccccc2)sc1C(=O)NNC(N)=O
inactive: 786-0 > 100 µM | A498 46.9 µM | EKVX 55.6 µM | HOP-62 49.8 µM | LOX IMVI > 100 µM | M14 > 100 µM | MOLT-4 > 100 µM | Malme-3M > 100 µM | OVCAR-3 > 100 µM | OVCAR-5 > 100 µM | OVCAR-8 > 100 µM | SK-MEL-28 > 100 µM | SK-MEL-5 > 100 µM | SN12C > 100 µM | SNB-75 29.6 µM | SW-620 > 100 µM | UACC-257 27.4 µM

COc1cc2c(cc1OC)C(Cl)C(c1ccc(Cl)cc1)=C2Cl (stereo not given)
inactive: A498 18.6 µM | EKVX 9.86 µM | LOX IMVI 12.1 µM | M14 15.4 µM | MOLT-4 6.73 µM | Malme-3M 22 µM | OVCAR-3 16.5 µM | OVCAR-8 19.3 µM | SK-MEL-28 19.1 µM | SK-MEL-5 14.4 µM | SN12C 17.5 µM | SNB-75 19.1 µM | SW-620 18.7 µM

Cc1cc(NS(=O)(=O)c2ccc(NC(=O)c3cccc4cc5ccccc5nc34)cc2)no1
inactive: 786-0 16.7 µM | A498 16.7 µM | EKVX 29.6 µM | HOP-62 27.6 µM | LOX IMVI > 10 µM | M14 23.5 µM | MOLT-4 17.1 µM | Malme-3M 14.8 µM | OVCAR-3 22.3 µM | OVCAR-5 23.2 µM | OVCAR-8 16.6 µM | SK-MEL-28 8.36 µM | SK-MEL-5 15.6 µM | SN12C 18 µM | SNB-75 17.6 µM | SW-620 25.3 µM | UACC-257 27.4 µM

C=C(C(=C)P(=S)(c1ccccc1)c1ccccc1)P(=S)(c1ccccc1)c1ccccc1
inactive: 786-0 > 100 µM | A498 > 100 µM | EKVX > 100 µM | HOP-62 > 100 µM | M14 > 100 µM | MOLT-4 > 100 µM | Malme-3M 74.8 µM | OVCAR-3 > 100 µM | OVCAR-5 > 100 µM | OVCAR-8 > 100 µM | SK-MEL-28 > 100 µM | SK-MEL-5 > 100 µM | SN12C > 100 µM | SNB-75 45.5 µM | SW-620 > 100 µM | UACC-257 > 100 µM

Cn1c(=O)nc2n(-c3ccc(Br)cc3)c3ccccc3nc-2c1=O
inactive: 786-0 3.74 µM | A498 11.2 µM | EKVX 1.94 µM | HOP-62 13.6 µM | M14 3.75 µM | MOLT-4 6.25 µM | Malme-3M 3.61 µM | OVCAR-3 2.48 µM | OVCAR-5 13.6 µM | OVCAR-8 3.38 µM | SK-MEL-5 1.77 µM | SN12C 4.97 µM | SNB-75 4.65 µM | SW-620 2.06 µM | UACC-257 2.69 µM
